Laboratory results taken from patent US8173635B2, “Kinase inhibitors” (Vertex Pharmaceuticals Incorporated, priority 2007, dated 2012).

Key:
Assay type in all cases: biochemical
PKC theta kinase = PKC theta kinase (Homo sapiens, UniProt Q04759); assay: PKC theta kinase inhibition, coupled-enzyme NADH absorbance assay (Ki); settings: 240 μM ATP, 18 nM PKC theta, 30° C.; read-out: Ki PKC theta
Summary of the method: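 Coupled-enzyme kinase assay following NADH absorbance at 340 nm, in 100 mM HEPES pH 7.5, 10 mM MgCl2, 25 mM NaCl, 0.1 mM EDTA, 0.01% Brij. Compound in DMSO preincubated with enzyme 10 min at 30 °C. Ki from initial rates by non-linear regression.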

PKC delta kinase = PKC delta kinase (Homo sapiens, UniProt Q05655); assay: PKC delta kinase inhibition, coupled-enzyme NADH absorbance assay (Ki); settings: 150 μM ATP, 46 nM PKC delta, 30° C.; read-out: Ki PKC delta
Sequence of PKC delta kinase (Q05655 whole entry): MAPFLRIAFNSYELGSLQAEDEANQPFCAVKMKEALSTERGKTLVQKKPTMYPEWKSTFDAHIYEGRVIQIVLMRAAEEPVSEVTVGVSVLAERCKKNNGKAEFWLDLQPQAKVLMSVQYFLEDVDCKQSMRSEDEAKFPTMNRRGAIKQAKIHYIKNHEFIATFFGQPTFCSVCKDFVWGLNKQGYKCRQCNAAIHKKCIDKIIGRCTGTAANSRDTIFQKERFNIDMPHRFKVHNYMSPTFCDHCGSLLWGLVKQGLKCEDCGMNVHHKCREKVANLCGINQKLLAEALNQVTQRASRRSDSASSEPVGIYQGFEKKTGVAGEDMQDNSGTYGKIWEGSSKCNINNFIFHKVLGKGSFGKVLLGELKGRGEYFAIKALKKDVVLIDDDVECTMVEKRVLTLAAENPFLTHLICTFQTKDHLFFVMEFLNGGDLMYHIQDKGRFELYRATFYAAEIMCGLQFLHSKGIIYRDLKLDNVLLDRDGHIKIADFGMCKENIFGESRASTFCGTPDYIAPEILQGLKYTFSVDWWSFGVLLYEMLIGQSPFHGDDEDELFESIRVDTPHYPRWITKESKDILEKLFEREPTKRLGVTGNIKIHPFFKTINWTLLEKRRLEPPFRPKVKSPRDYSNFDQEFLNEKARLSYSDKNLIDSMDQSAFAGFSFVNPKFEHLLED
Summary of the method: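 Assay buffer was 100 mM HEPES pH 7.5, 10 mM MgCl2, 25 mM NaCl, 0.1 mM EDTA, 0.01% Brij. Enzyme buffer was equilibrated with compound in DMSO for 10 min at 30 °C. Ki values were derived by non-linear regression of initial rate data.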

PKC alpha kinase = PKC alpha kinase (Homo sapiens, UniProt P17252); assay: PKC alpha kinase inhibition, coupled-enzyme NADH absorbance assay (Ki); settings: 130 μM ATP, 4.5 nM PKC alpha, 30° C.; read-out: Ki PKC alpha

Sequence of PKC theta kinase (Q04759 whole entry): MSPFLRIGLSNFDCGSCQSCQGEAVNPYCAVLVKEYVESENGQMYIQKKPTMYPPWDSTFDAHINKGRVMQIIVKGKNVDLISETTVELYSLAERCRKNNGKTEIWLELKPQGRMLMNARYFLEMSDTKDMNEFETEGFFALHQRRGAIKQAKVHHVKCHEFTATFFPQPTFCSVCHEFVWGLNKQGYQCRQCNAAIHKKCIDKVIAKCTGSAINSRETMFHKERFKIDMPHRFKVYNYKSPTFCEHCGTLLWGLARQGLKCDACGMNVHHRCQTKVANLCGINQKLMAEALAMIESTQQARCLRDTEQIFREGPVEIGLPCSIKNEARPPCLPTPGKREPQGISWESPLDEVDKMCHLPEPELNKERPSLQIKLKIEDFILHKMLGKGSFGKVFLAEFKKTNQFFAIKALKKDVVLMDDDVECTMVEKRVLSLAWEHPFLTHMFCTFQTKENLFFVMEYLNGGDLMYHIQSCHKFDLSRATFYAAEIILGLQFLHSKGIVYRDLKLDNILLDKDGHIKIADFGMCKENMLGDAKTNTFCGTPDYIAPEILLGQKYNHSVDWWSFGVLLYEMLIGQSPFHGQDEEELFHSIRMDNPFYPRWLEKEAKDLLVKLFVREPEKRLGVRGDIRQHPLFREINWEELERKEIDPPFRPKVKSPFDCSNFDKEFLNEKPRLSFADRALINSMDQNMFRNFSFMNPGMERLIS

Work on `NCC1(c2cccc(-c3ccnc4[nH]nc(C(F)(F)F)c34)c2)COC1` [Compound 305, (3-(3-(3-(trifluoromethyl)-1H-pyrazolo[3,4-b]pyridin-4-yl)phenyl)oxetan-3-yl)methanamine] yielded a Ki (PKC theta kinase) of less than 0.05 µM, a Ki (PKC delta kinase) of less than 0.5 µM and a Ki (PKC alpha kinase) of less than 2.8 µM.

Work on `CCc1n[nH]c2nccc(-c3cc(C)cc(C4(CN)CC4)c3)c12` [Compound 265] yielded a Ki (PKC theta kinase) of less than 0.05 µM, a Ki (PKC delta kinase) of less than 0.5 µM and a Ki (PKC alpha kinase) of less than 0.5 µM.

In the case of `NCc1cccc(-c2ccnc3[nH]nc(C4CC4)c23)c1` [Compound 269], the Ki (PKC theta kinase) is reported as greater than 0.7 µM, the Ki (PKC delta kinase) is reported as greater than 1.2 µM and the Ki (PKC alpha kinase) is reported as greater than 1.2 µM.

Work on `C=Cc1cc(-c2ccnc3[nH]ncc23)cc(C(C)(C)CN)c1` [Compound 36] yielded a Ki (PKC theta kinase) of less than 0.5 µM, a Ki (PKC delta kinase) of less than 2.8 µM and a Ki (PKC alpha kinase) of less than 2.8 µM.

`NCC1(c2cccc(-c3ccnc4[nH]nc(Cl)c34)c2)CCOCC1` [Compound 206] gave a Ki (PKC theta kinase) of less than 0.05 µM, a Ki (PKC delta kinase) of less than 0.5 µM and a Ki (PKC alpha kinase) of less than 0.5 µM.

For `CCC(C)(C#N)c1cc(CC#N)cc(-c2ccnc3[nH]ncc23)c1` (stereo not drawn) [Compound 126], the Ki (PKC theta kinase) was less than 0.5 µM, the Ki (PKC delta kinase) was greater than 2 µM and the Ki (PKC alpha kinase) was greater than 1.2 µM.

`COC(CN)c1cc(C)cc(-c2ccnc3[nH]nc(C(F)(F)F)c23)c1` (stereo not drawn) [Compound 297] showed a Ki (PKC theta kinase) of less than 0.05 µM, a Ki (PKC delta kinase) of less than 2.8 µM and a Ki (PKC alpha kinase) of less than 0.5 µM.

For `C=CCC1(c2cc(C)cc(-c3ccnc4[nH]ncc34)c2)CN(C)C(=O)O1` (stereo not drawn) [Compound 326], the Ki (PKC theta kinase) was less than 0.5 µM, the Ki (PKC delta kinase) was greater than 1.2 µM and the Ki (PKC alpha kinase) was greater than 1.2 µM.

With `CNCC(F)(F)c1cc(-c2ccnc3[nH]ncc23)cc(C2(C#N)CC2)c1` [Compound 123] the Ki (PKC theta kinase) was less than 0.05 µM, the Ki (PKC delta kinase) was less than 2.8 µM and the Ki (PKC alpha kinase) was less than 2.8 µM.

For `NCC1(c2cc(-c3ccnc4[nH]ncc34)cc(C(F)(F)F)c2)CCC1` [Compound 140], the Ki (PKC theta kinase) was less than 0.5 µM, the Ki (PKC delta kinase) was less than 2.8 µM and the Ki (PKC alpha kinase) was less than 2.8 µM.

`NCC1(c2cccc(-c3ccnc4[nH]nc(C(F)(F)F)c34)c2)CCC1` [Compound 280] gave a Ki (PKC theta kinase) of less than 0.05 µM, a Ki (PKC delta kinase) of less than 0.5 µM and a Ki (PKC alpha kinase) of less than 0.5 µM.

`CC(C)(C#N)c1cccc(-c2ccnc3[nH]ncc23)n1` [Compound 1, 2-(6-(1H-pyrazolo[3,4-b]pyridin-4-yl)pyridin-2-yl)-2-methylpropanenitrile] was tested, and the Ki (PKC theta kinase) was less than 0.05 µM, the Ki (PKC delta kinase) was less than 0.5 µM and the Ki (PKC alpha kinase) was less than 0.5 µM.

For `CC[C@](C)(CN)c1cccc(-c2ccnc3[nH]ncc23)c1` [Compound 151], the Ki (PKC theta kinase) was less than 0.05 µM, the Ki (PKC delta kinase) was less than 0.05 µM and the Ki (PKC alpha kinase) was less than 0.5 µM.

`Cc1cc(/C(=C/C#N)CN)cc(-c2ccnc3[nH]ncc23)c1` [Compound 323] gave a Ki (PKC theta kinase) of less than 0.5 µM, a Ki (PKC delta kinase) of less than 2.8 µM and a Ki (PKC alpha kinase) of less than 0.5 µM.

`OCC1(c2cccc(-c3ccnc4[nH]ncc34)c2)CCNC1` (stereo not drawn) [Compound 196] was tested, and the Ki (PKC theta kinase) was less than 0.05 µM, the Ki (PKC delta kinase) was less than 2.8 µM and the Ki (PKC alpha kinase) was less than 2.8 µM.

Work on `NCC1(c2cccc(-c3ccnc4[nH]ncc34)c2)CC=C(F)CC1` (stereo not drawn) [Compound 184] yielded a Ki (PKC theta kinase) of less than 0.05 µM, a Ki (PKC delta kinase) of less than 0.5 µM and a Ki (PKC alpha kinase) of less than 0.5 µM.

In the case of `N#CC(c1cccc(-c2ccnc3[nH]ncc23)c1)N1CCNCC1` (stereo not drawn) [Compound 321], the Ki (PKC theta kinase) is reported as less than 0.5 µM, the Ki (PKC delta kinase) is reported as greater than 1.2 µM and the Ki (PKC alpha kinase) is reported as greater than 1.2 µM.

`CC(CN)(Cc1ccncc1)c1cccc(-c2ccnc3[nH]ncc23)c1` (stereo not drawn) [Compound 172] gave a Ki (PKC theta kinase) of less than 0.05 µM, a Ki (PKC delta kinase) of less than 0.5 µM and a Ki (PKC alpha kinase) of less than 2.8 µM.

Compound `COCC(C)(C#N)c1cccc(-c2ccnc3[nH]ncc23)c1` (stereo not drawn) [Compound 95] has a Ki (PKC theta kinase) of less than 0.5 µM, a Ki (PKC delta kinase) greater than 2.8 µM and a Ki (PKC alpha kinase) of less than 2.8 µM.

`CCc1cc(-c2ccnc3[nH]nc(Cl)c23)cc(C(C)(CC)CN)c1` (stereo not drawn) [Compound 256] was tested, and the Ki (PKC theta kinase) was less than 0.05 µM, the Ki (PKC delta kinase) was less than 0.5 µM and the Ki (PKC alpha kinase) was less than 0.05 µM.

Compound `CCC(F)c1cc(-c2ccnc3[nH]ncc23)cc(C(C)(CC)CN)c1` (stereo not drawn) [Compound 158] has a Ki (PKC theta kinase) of less than 0.5 µM, a Ki (PKC delta kinase) greater than 2 µM and a Ki (PKC alpha kinase) of less than 2.8 µM.

`NCC1(c2cccc(-c3ccnc4[nH]ncc34)c2)CCCC1` [Compound 50] gave a Ki (PKC theta kinase) of less than 0.05 µM, a Ki (PKC delta kinase) of less than 0.5 µM and a Ki (PKC alpha kinase) of less than 2.8 µM.

In the case of `CCc1cc(-c2ccnc3[nH]ncc23)cc(C(C)(C)C#N)c1` [Compound 62], the Ki (PKC theta kinase) is reported as less than 0.05 µM, the Ki (PKC delta kinase) is reported as greater than 2.8 µM and the Ki (PKC alpha kinase) is reported as less than 2.8 µM.

Compound `CCC(F)c1cc(-c2ccnc3[nH]ncc23)cc(C(C)(C#N)CC)c1` (stereo not drawn) [Compound 106] has a Ki (PKC theta kinase) of less than 0.5 µM, a Ki (PKC delta kinase) greater than 2 µM and a Ki (PKC alpha kinase) of less than 2.8 µM.

Compound `N#CC1(c2cc(-c3ccnc4[nH]ncc34)cc(C(F)(F)CN)c2)CC1` [Compound 122] has a Ki (PKC theta kinase) of less than 0.05 µM, a Ki (PKC delta kinase) of less than 2.8 µM and a Ki (PKC alpha kinase) of less than 2.8 µM.

`CCC(N)c1cccc(-c2ccnc3[nH]nc(C(F)(F)F)c23)c1` (stereo not drawn) [Compound 309] gave a Ki (PKC theta kinase) of less than 0.05 µM, a Ki (PKC delta kinase) of less than 2.8 µM and a Ki (PKC alpha kinase) of less than 2.8 µM.

Work on `C=Cc1ccc(-c2ccnc3n[nH]cc23)cc1C(C)(C)C#N` [Compound 84] yielded a Ki (PKC theta kinase) of less than 2.8 µM, a Ki (PKC delta kinase) greater than 2.8 µM and a Ki (PKC alpha kinase) greater than 2.8 µM.

Work on `CCC(C)(CO)c1cc(C)cc(-c2ccnc3[nH]ncc23)c1` (stereo not drawn) [Compound 241] yielded a Ki (PKC theta kinase) of less than 0.05 µM, a Ki (PKC delta kinase) of less than 2.8 µM and a Ki (PKC alpha kinase) of less than 0.5 µM.

`OCC1(c2cccc(-c3ccnc4[nH]ncc34)c2)CC1` [Compound 243] was tested, and the Ki (PKC theta kinase) was less than 0.5 µM, the Ki (PKC delta kinase) was greater than 2 µM and the Ki (PKC alpha kinase) was greater than 1.2 µM.
